Assay [1] has as its target T1, Thymidine kinase (Ureaplasma parvum serovar 3 (strain ATCC 700970), UniProt Q9PPP5).
T1 sequence (Q9PPP5 whole entry): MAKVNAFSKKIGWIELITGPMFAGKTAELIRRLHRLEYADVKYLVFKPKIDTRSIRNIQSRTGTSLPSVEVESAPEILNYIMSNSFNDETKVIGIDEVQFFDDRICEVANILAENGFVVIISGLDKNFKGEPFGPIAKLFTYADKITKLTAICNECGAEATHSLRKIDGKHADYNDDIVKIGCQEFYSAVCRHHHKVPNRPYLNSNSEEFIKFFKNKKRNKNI
The experiment in a line: Inhibition of Ureaplasma parvum thymidine kinase by liquid scintillation counting.

Assay [2] has as its target T2, Thymidine kinase, cytosolic (Homo sapiens, UniProt P04183).
T2 sequence (P04183 whole entry): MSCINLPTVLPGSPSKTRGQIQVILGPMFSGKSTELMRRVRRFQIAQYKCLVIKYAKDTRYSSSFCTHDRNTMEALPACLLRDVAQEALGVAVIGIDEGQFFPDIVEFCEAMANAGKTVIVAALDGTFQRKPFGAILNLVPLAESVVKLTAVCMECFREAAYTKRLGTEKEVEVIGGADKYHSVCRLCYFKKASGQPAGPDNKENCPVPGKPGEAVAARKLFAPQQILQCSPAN
Kind of assay: Inhibition of human TK1 by liquid scintillation counting.

Molecules are shown by their SMILES.

Compound `Cc1cn([C@H]2C[C@H](n3cc(-c4ccccc4)nn3)[C@@H](CO)O2)c(=O)[nH]c1=O` [3'-Deoxy-3'-(4-phenyl-1,2,3-triazol-1-yl)-beta-D-thymidine] yielded a 50% inhibitory concentration (IC50) in assay [1] of 200 µM.
With `Cc1cn([C@H]2C[C@H](n3cc(C(C)(C)C)nn3)[C@@H](CO)O2)c(=O)[nH]c1=O` [3'-(4-tert-Butyl-1,2,3-triazol-1-yl)-3'-deoxythymidine], the IC50 in assay [1] stood at 318 µM; in assay [2] it was 114 µM.
In assay [1], `Cc1cn([C@H]2C[C@H](n3cc(-c4ccccn4)nn3)[C@@H](CO)O2)c(=O)[nH]c1=O` [3'-Deoxy-3'-(4-pyridin-2-yl-1,2,3-triazol-1-yl)-beta-D-thymidine] registered an IC50 of 211 µM.
In assay [1], `Cc1cn([C@H]2C[C@H](n3cc(CCc4ccccc4)nn3)[C@@H](CO)O2)c(=O)[nH]c1=O` [3'-(4-(2-Phenyl-ethyl)-1,2,3-triazole-1-yl)-2'-deoxythymidine] showed an IC50 of 120 µM.
